# Source: patent US20240368157A1, “FORMS AND COMPOSITIONS OF A JAK2 INHIBITOR” (Ajax Therapeutics, Inc., priority 2023, published 2024)
# How the values were obtained:
# JAK3 = target: T1, JAK3 (Homo sapiens, UniProt P52333); assay: JAK Family Selectivity Assay (JAK3 vs JAK2 binding affinity); conditions: selectivity over JAK2
# T1 construct: made in house; host or cells: E. coli (BL21-derived, T7 phage display) or HEK-293
# T1 sequence (P52333 1-1124): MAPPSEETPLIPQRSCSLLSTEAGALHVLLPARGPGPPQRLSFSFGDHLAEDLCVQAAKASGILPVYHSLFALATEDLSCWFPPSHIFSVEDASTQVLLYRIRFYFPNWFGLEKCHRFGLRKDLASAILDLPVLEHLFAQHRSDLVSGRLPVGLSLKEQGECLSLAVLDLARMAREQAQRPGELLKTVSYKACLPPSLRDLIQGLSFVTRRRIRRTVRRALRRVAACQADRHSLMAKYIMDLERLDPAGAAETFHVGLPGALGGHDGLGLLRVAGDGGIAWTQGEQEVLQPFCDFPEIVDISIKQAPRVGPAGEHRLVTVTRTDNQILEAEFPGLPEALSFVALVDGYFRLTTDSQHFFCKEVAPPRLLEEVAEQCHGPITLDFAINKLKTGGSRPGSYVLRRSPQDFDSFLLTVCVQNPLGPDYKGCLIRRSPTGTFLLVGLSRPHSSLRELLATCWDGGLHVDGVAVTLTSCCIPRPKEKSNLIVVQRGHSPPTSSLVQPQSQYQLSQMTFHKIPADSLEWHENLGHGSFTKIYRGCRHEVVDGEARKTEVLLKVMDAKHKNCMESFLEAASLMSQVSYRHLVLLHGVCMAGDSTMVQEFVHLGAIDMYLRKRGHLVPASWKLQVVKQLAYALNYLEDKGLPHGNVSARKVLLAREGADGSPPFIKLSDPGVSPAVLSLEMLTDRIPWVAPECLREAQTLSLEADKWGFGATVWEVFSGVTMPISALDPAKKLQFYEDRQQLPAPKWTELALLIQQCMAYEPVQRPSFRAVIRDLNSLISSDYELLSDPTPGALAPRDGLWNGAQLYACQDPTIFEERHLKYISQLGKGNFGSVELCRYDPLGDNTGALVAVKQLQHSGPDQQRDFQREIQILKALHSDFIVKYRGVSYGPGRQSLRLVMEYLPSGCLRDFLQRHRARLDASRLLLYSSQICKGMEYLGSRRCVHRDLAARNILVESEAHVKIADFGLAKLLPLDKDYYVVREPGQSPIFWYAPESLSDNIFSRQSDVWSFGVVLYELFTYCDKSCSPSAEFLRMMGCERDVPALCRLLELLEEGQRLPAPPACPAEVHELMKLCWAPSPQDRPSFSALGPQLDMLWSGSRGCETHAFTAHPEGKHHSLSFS
# Experimental: Provided compounds are evaluated for selectivity by comparing their JAK2 binding affinity (Kd) in the above JAK2 Binding Assay with their binding affinity (Kd) for one or more other kinases. Binding affinity for other kinases is determined as follows: Kinase-tagged T7 phage strains are prepared in an E. coli host derived from the BL21 strain. E. coli are grown to log-phase and infected with T7 phage and incubated with shaking at 32° C. until lysis. The lysates are centrifuged and filtered to remove cell debris. The remaining kinases are produced in HEK-293 cells and subsequently tagged with DNA for qPCR detection. Streptavidin-coated magnetic beads are treated with biotinylated small molecule ligands for 30 minutes at room temperature to generate affinity resins for kinase assays. The liganded beads are blocked with excess biotin and washed with blocking buffer (SeaBlock (Pierce), 1% BSA, 0.05% Tween 20, 1 mM DTT) to remove unbound ligand and to reduce non-specific binding. Binding reactions are assembled by combining kinases, liganded affinity beads, and test compounds in 1× binding buffer (20% SeaBlock, 0.17×PBS, 0.05% Tween 20, 6 mM DTT). Test compounds are prepared as 111× stocks in 100% DMSO. Kds are determined using an 11-point 3-fold compound dilution series with three DMSO control points. […] The kinase concentration in the eluates is measured by qPCR. […]
# [1] = Hepatocyte Stability Assay (rat hepatocytes); format: in vitro ADME; conditions: cryopreserved hepatocytes, read-out: Rat Heps CLint
# Experimental: 10 mM stock solutions of test compound and positive control are prepared in DMSO. Stock solutions are diluted to 100 μM by combining 198 μL of 50% acetonitrile/50% water and 2 μL of 10 mM stock solution. Verapamil is used as positive control in the assay. Vials of cryopreserved hepatocytes are thawed in a 37° C. water bath with gently shaking. The contents are poured into the 50 mL thawing medium conical tube. Vials are centrifuged at 100 g for 10 minutes at room temperature. Thawing medium is aspirated and hepatocytes are re-suspended with serum-free incubation medium to yield ˜1.5×10^6 cells/mL. Cell viability and density are counted using a Trypan Blue exclusion, and then cells are diluted with serum-free incubation medium to a working cell density of 0.5×10^6 viable cells/mL. A portion of the hepatocytes at 0.5×10^6 viable cells/mL are boiled for 5 min prior to adding to the plate as negative control to eliminate the enzymatic activity so that little or no substrate turnover should be observed. Aliquots of 198 μL hepatocytes are dispensed into each well of a 96-well non-coated plate. The plate is placed in the incubator for approximately 10 minutes. Aliquots of 2 μL of the 100 μM test compound and 2 μL positive control are added into respective wells of a non-coated 96-well plate to start the reaction. The final concentration of test compound is 1 μM. […]
JAK3/JAK2 Kd/Kd ratio (JAK3),CLint scaled at 1 μM [1],Compound
A (Kd/Kd ratio≥1000),35 to 45 mL/min/kg,"CCN1CCN(Cc2ccc(Nc3nc4ccc(Oc5ccnc(NC(C)=O)c5)cc4n3C)cc2C(F)(F)F)CC1 [Compound R-1, reference compound]"
A (Kd/Kd ratio≥1000),17 to 35 mL/min/kg,"CN(C)C(=O)Nc1cc(Oc2cnc3nc(Nc4cc(C(F)(F)F)cn(C)c4=O)n(C)c3c2C#N)ccn1 [Compound 1, 3-(4-((7-cyano-1-methyl-2-((1-methyl-2-oxo-5-(trifluoromethyl)-1,2-dihydropyridin-3-yl)amino)-1H-imidazo[4,5-b]pyridin-6-yl)oxy)pyridin-2-yl)-1,1-dimethylurea]"
